One assay concerns the target T1, IKKε (Homo sapiens, UniProt Q14164).
T1 construct: purchased Promega and/or Invitrogen V4158; PR8031B; V3991 (not assigned to the two kinases)
T1 sequence (Q14164 1-716): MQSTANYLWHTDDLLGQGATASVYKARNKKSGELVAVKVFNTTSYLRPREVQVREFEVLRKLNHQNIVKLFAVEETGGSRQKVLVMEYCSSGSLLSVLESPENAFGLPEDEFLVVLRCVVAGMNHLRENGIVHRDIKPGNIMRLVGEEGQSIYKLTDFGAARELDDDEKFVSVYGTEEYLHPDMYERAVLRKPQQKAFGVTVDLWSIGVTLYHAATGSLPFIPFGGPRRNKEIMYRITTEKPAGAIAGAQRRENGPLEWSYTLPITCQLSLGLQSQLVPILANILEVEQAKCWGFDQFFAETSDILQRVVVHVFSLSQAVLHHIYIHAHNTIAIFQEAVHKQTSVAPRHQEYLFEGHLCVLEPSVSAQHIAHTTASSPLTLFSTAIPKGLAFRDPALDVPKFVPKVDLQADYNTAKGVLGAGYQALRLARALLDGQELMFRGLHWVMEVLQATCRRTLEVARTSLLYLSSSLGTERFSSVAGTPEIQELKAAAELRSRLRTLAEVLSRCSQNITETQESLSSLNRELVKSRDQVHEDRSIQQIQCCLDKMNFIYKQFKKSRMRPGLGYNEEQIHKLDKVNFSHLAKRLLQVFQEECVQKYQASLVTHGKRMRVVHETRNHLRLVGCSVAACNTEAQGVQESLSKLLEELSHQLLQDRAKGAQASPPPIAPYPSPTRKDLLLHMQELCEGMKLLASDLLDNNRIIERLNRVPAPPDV
As to the kind of experiment: ADP-Glo Kinase Assay, inhibition activity on IKKε. Format: biochemical. In a few lines: (§1)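 In 40 mM Tris pH 7.5 with 20 mM MgCl2 and 0.1 mg/mL BSA, each enzyme (IKKε or TBK1 kinase system) was run according to the manufacturer's protocol. ADP formed was detected by ADP-Glo luminescence.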
(In general: In ADP-Glo the light output rises with the ADP produced.)

Another assay deals with T2, TBK1 (Homo sapiens, UniProt Q9UHD2).
T2 construct: purchased Promega (Invitrogen is also named in the same bracket) V4158; PR8031B; V3991 (not assigned to the two kinases)
T2 sequence (Q9UHD2 1-729): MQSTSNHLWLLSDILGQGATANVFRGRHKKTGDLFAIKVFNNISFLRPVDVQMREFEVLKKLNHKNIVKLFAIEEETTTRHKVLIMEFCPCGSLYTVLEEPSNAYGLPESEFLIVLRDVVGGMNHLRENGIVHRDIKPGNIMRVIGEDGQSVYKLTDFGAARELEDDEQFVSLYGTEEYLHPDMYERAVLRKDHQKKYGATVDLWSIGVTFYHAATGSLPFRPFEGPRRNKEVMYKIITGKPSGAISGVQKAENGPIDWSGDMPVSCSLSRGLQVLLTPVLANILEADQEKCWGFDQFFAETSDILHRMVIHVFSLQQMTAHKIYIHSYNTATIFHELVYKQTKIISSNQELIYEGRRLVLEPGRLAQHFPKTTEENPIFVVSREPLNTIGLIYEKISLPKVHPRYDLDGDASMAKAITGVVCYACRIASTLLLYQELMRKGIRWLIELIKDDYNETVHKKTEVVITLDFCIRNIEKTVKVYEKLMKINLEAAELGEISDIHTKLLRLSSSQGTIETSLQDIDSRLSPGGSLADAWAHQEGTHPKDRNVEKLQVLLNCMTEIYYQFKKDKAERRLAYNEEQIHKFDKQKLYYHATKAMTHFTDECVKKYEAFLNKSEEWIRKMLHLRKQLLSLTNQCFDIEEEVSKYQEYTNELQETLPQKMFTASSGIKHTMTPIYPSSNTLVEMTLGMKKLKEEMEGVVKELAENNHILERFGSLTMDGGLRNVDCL
Description: ADP-Glo Kinase Assay, inhibition activity on TBK1. Type of assay: biochemical. The essentials: as §1

In general, IC50 refers to the midpoint of a concentration-inhibition curve. A high value points to weaker potency in that assay. `CC(C)NC(=O)N1C2C=C(c3c[nH]c4ncc(-c5ccc(CN6CCOCC6)s5)cc34)CC1CCC2` (stereo not shown) [Example 118, N-isopropyl-3-(5-(5-(morpholinomethyl)thiophen-2-yl)-1H-pyrrolo[2,3-b]pyridin-3-yl)-9-azabicyclo[3.3.1]non-3-ene-9-carboxamide]: the IC50 on IKKε was 610 nM; against TBK1 it was 340 nM.

As to `COc1ccc(-c2cnc3[nH]cc(C4=CC(c5ccccc5)N(C(=O)NC(C)C)CC4)c3c2)cc1OC` (stereo not shown) [Example 119, 4-(5-(3,4-Dimethoxyphenyl)-1H-pyrrolo[2,3-b]pyridin-3-yl)-N-isopropyl-2-phenyl-5,6-dihydropyridine-1(2H)-carboxamide], the values for the IC50 on IKKε and against TBK1 were 3470 nM and 5410 nM, respectively.

Consider `CC1CN(C(=O)NC2CCCC2)CC=C1c1c[nH]c2ncc(-c3ccc(S(C)(=O)=O)cc3)cc12` (stereo not shown) [Example 121, N-cyclopentyl-5-methyl-4-(5-(4-(methylsulfonyl)phenyl)-1H-pyrrolo[2,3-b]pyridin-3-yl)-5,6-dihydropyridine-1(2H)-carboxamide], for which the IC50 stood at 330 nM at IKKε and 97 nM on TBK1.

On to `CC1CN(C(=O)NC2CCCC2)CC=C1c1c[nH]c2ncc(-c3cccc(S(C)(=O)=O)c3)cc12` (stereo not shown) [Example 122, N-cyclopentyl-5-methyl-4-(5-(3-(methylsulfonyl)phenyl)-1H-pyrrolo[2,3-b]pyridin-3-yl)-5,6-dihydropyridine-1(2H)-carboxamide], for which the IC50 at IKKε worked out at 97 nM; against TBK1 it was 36 nM.

Consider `CC1CN(C(=O)NC2CCCC2)CC=C1c1c[nH]c2ncc(-c3cccc(S(N)(=O)=O)c3)cc12` (stereo not shown) [Example 123, N-cyclopentyl-5-methyl-4-(5-(3-sulfamoylphenyl)-1H-pyrrolo[2,3-b]pyridin-3-yl)-5,6-dihydropyridine-1(2H)-carboxamide], for which the IC50 against IKKε came out at 80 nM; on TBK1 it was 28 nM.

For the compound `CC(C)NC(=O)N1CC=C(c2c[nH]c3ncc(-c4ccc(CN5CCN(C)CC5)s4)cc23)C(C)C1` (stereo not shown) [Example 125, N-isopropyl-5-methyl-4-(5-(5-((4-methylpiperazin-1-yl)methyl)thiophen-2-yl)-1H-pyrrolo[2,3-b]pyridin-3-yl)-5,6-dihydropyridine-1(2H)-carboxamide], the half-maximal inhibitory concentration (IC50) came out at 27 nM against IKKε and 3.6 nM against TBK1.

Turning to `CC1CN(C(=O)NC2CCCC2)CC=C1c1c[nH]c2ncc(-c3ccc(CN4CCN(C)CC4)s3)cc12` (stereo not shown) [Example 126, N-cyclopentyl-5-methyl-4-(5-(5-((4-methylpiperazin-1-yl)methyl)thiophen-2-yl)-1H-pyrrolo[2,3-b]pyridin-3-yl)-5,6-dihydropyridine-1(2H)-carboxamide], the IC50 against IKKε was found to be 33 nM; against TBK1, 15 nM.

Consider `CC1CN(C(=O)NC2CCCC2)CC=C1c1c[nH]c2ncc(-c3ccc(CN4CCOCC4)s3)cc12` (stereo not shown) [Example 127, N-cyclopentyl-5-methyl-4-(5-(5-(morpholinomethyl)thiophen-2-yl)-1H-pyrrolo[2,3-b]pyridin-3-yl)-5,6-dihydropyridine-1(2H)-carboxamide], for which the values for the IC50 against IKKε and against TBK1 were 100 nM and 4 nM, respectively.

In the case of `NS(=O)(=O)c1cccc(-c2cnc3[nH]cc(C4=CCN(C(=O)OC5CCCC5)CC4)c3c2)c1` [Example 145, Cyclopentyl 4-(5-(3-sulfamoylphenyl)-1H-pyrrolo[2,3-b]pyridin-3-yl)-5,6-dihydropyridine-1(2H)-carboxylate], the figures for the IC50 on IKKε and against TBK1 were 120 nM and 33 nM, respectively.

In the case of `CC(C)OC(=O)N1CC=C(c2c[nH]c3ncc(-c4ccc(S(C)(=O)=O)cc4)cc23)CC1` [Example 148, Isopropyl 4-(5-(4-(methylsulfonyl)phenyl)-1H-pyrrolo[2,3-b]pyridin-3-yl)-5,6-dihydropyridine-1(2H)-carboxylate], the half-inhibitory concentration (IC50) was 250 nM at IKKε and 54 nM on TBK1.

Consider `Cc1nnc(-c2cnc3[nH]cc(C4=CCN(C(=O)OC(C)(C)C)CC4)c3c2)s1` [Example 170, tert-Butyl 4-(5-(5-methyl-1,3,4-thiadiazol-2-yl)-1H-pyrrolo[2,3-b]pyridin-3-yl)-5,6-dihydropyridine-1(2H)-carboxylate], for which the results for the IC50 against IKKε and against TBK1 were 280 nM and 32 nM, respectively.

For `CN(C)S(=O)(=O)c1ccc(-c2cnc3[nH]cc(C4=CCN(C(=O)OC5CCCC5)CC4)c3c2)cc1` [Example 179, Cyclopentyl 4-(5-(4-(N,N-dimethylsulfamoyl)phenyl)-1H-pyrrolo[2,3-b]pyridin-3-yl)-5,6-dihydropyridine-1(2H)-carboxylate], the figures for the IC50 on IKKε and at TBK1 were 500 nM and 340 nM, respectively.

On to `O=C(c1cccs1)N1CC=C(c2c[nH]c3ncc(-c4ccc(S(=O)(=O)N5CCOCC5)cc4)cc23)CC1` [Example 190, (4-(5-(4-(Morpholinosulfonyl)phenyl)-1H-pyrrolo[2,3-b]pyridin-3-yl)-5,6-dihydropyridin-1(2H)-yl)(thiophen-2-yl)methanone], for which the IC50 was found to be 390 nM against IKKε and 140 nM against TBK1.

As to `O=C(c1cccs1)N1CC=C(c2c[nH]c3ncc(-c4ccc5[nH]ncc5c4)cc23)CC1` [Example 204, (4-(5-(1H-indazol-5-yl)-1H-pyrrolo[2,3-b]pyridin-3-yl)-5,6-dihydropyridin-1(2H)-yl)(thiophen-2-yl)methanone], the IC50 on IKKε is 280 nM; on TBK1, 57 nM.

Take `CN1CCN(Cc2ccc(-c3cnc4[nH]cc(C5=CCN(C(=O)c6cccs6)CC5)c4c3)s2)CC1` [Example 205, (4-(5-(5-((4-methylpiperazin-1-yl)methyl)thiophen-2-yl)-1H-pyrrolo[2,3-b]pyridin-3-yl)-5,6-dihydropyridin-1(2H)-yl)(thiophen-2-yl)methanone]: the figures for the IC50 against IKKε and on TBK1 were 23 nM and 3.3 nM, respectively.

For `O=C(c1ccc(-c2cnc3[nH]cc(C4=CCN(C(=O)c5cccs5)CC4)c3c2)cc1)N1CCOCC1` [Example 209, (4-(5-(4-(morpholine-4-carbonyl)phenyl)-1H-pyrrolo[2,3-b]pyridin-3-yl)-5,6-dihydropyridin-1(2H)-yl)(thiophen-2-yl)methanone], the IC50 is 140 nM on IKKε and 7 nM on TBK1.

`CS(=O)(=O)c1cccc(-c2cnc3[nH]cc(C4=CCN(C(=O)NC5CCCC5)CC4)c3n2)c1` [Example 228, N-cyclopentyl-4-(2-(3-(methylsulfonyl)phenyl)-5H-pyrrolo[2,3-b]pyrazin-7-yl)-5,6-dihydropyridine-1(2H)-carboxamide]: the IC50 against IKKε was found to be 400 nM; against TBK1, 90 nM.

On to `COc1ccc(-c2cnc3[nH]cc(C4CCN(C(=O)NC(C)C)CC4)c3c2)cc1OC` [Example 235, 4-(5-(3,4-dimethoxyphenyl)-1H-pyrrolo[2,3-b]pyridin-3-yl)-N-isopropylpiperidine-1-carboxamide], for which the IC50 against IKKε and against TBK1 was more than 10000 nM in each case.

In the case of `COc1ccc(-c2cnc3[nH]cc(C4=CCN(C(=O)NC(C)C)C4)c3c2)cc1OC` [Example 237, 3-(5-(3,4-dimethoxyphenyl)-1H-pyrrolo[2,3-b]pyridin-3-yl)-N-isopropyl-2,5-dihydro-1H-pyrrol-1-carboxamide], the IC50 on IKKε and at TBK1 was more than 10000 nM in each case.

As for `COc1ccc(-c2cnc3[nH]cc(C4CCN(C(=O)NC(C)C)C4)c3c2)cc1OC` (stereo not shown) [Example 238, 3-(5-(3,4-dimethoxyphenyl)-1H-pyrrolo[2,3-b]pyridin-3-yl)-N-isopropylpyrrolidine-1-carboxamide], the IC50 on IKKε came to 6050 nM; against TBK1, 6230 nM.

Source of the values: US10239873B2, “7-azaindole or 4,7-diazaindole derivatives as IKKϵ epsilon and TBK1 inhibitor and pharmaceutical composition comprising same” (GREEN CROSS CORPORATION, priority 2015, dated 2019).
